Literature values as cited in patent publication US11253533B1, “Water dissolvable macrocyclic lactone cyclodextrin complexes” (MOUNTAIN VALLEY MD INC, priority 2020, dated 2022).

CC[C@H](C)[C@H]1O[C@]2(CC[C@@H]1C)C[C@@H]1C[C@@H](C/C=C(\C)[C@@H](O[C@H]3C[C@H](OC)[C@@H](O[C@H]4C[C@H](OC)[C@@H](O)[C@H](C)O4)[C@H](C)O3)[C@@H](C)/C=C/C=C3\CO[C@@H]4[C@H](O)C(C)=C[C@@H](C(=O)O1)[C@]34O)O2 [Ivermectin, (1R,4S,5'S,6R,6′R,8R,10E,12S,13S,14E,16E,20R,21R,24S)-6′-[(2S)-butan-2-yl]-21,24-dihydroxy-12-[(2R,4S,5S,6S)-5-[(2S,4S,5S,6S)-5-hydroxy-4-methoxy-6-methyloxan-2-yl]oxy-4-methoxy-6-methyloxan-2-yl]oxy-5′,11,13,22-tetramethylspiro[3,7,19-trioxatetracyclo[15.6.1.14,8.020,24]pentacosa-10,14,16,22-tetraene-6,2′-oxane]-2-one]
maximum concentration of ivermectin (FR 3042412, without an organic solvent): 2 mg per millileter of water
solubility of Ivermectin (U.S. Pat. No. 4,389,397, with organic solvents, no cyclodextrin): 7%
solubility in water (at 25 degrees Celsius): about 0.005 mg per ml
